Measured values from ChEMBL document CHEMBL5096191 (J Med Chem, 2021).

Legend:
Format in all cases: functional, cell-based
[1] = target: T1, Cannabinoid receptor 2 (Homo sapiens, UniProt P34972, V36M); experiment: Partial agonist activity at CBR2 V361.35M mutant (unknown origin) expressed in HEK293T assessed as increase in picometer shifts of reflected light wavelengths in presence of cannabidiol by DMR assay
[2] = target: T2, Cannabinoid receptor 2 (Homo sapiens, UniProt P34972, V113M); experiment: Partial agonist activity at CBR2 V1133.32M mutant (unknown origin) expressed in HEK293T assessed as increase in picometer shifts of reflected light wavelengths in presence of cannabidiol by DMR assay
[3] = target: T2, Cannabinoid receptor 2; experiment: Partial agonist activity at CBR2 V1133.32M mutant (unknown origin) expressed in HEK293T assessed as increase in picometer shifts of reflected light wavelengths by DMR assay
[4] = system: Cannabinoid receptor 2 (Homo sapiens), P34972 [S285L]; experiment: Partial agonist activity at CBR2 S2857.39L mutant (unknown origin) expressed in HEK293T assessed as increase in picometer shifts of reflected light wavelengths in presence of cannabidiol by DMR assay relative to control; details: filed as partial agonist
[5] = target: T3, Cannabinoid receptor 2 (Homo sapiens, UniProt P34972, S285L); experiment: Partial agonist activity at CBR2 S2857.39L mutant (unknown origin) stably expressed in HEK293T assessed as decrease in forskolin induced cAMP level preincubated for 15 mins followed by forskolin addition incubated for 15 mins in presence of cannabidiol by HTRF assay
[6] = system: Cannabinoid receptor 2 (Homo sapiens), P34972 [V113M]; experiment: Partial agonist activity at CBR2 V1133.32M mutant (unknown origin) expressed in HEK293T assessed as increase in ERK1/2 phosphorylation incubated for 7 mins by AlphaScreenSureFire method relative to control; details: filed as partial agonist
[7] = system: Cannabinoid receptor 2 (Homo sapiens), P34972 [A282M]; experiment: Partial agonist activity at CBR2 A2827.36M mutant (unknown origin) expressed in HEK293T assessed as increase in picometer shifts of reflected light wavelengths by DMR assay relative to control; details: filed as partial agonist
[8] = system: Cannabinoid receptor 2 (Homo sapiens), P34972 [V36M]; experiment: Partial agonist activity at CBR2 V361.35M mutant (unknown origin) expressed in HEK293T assessed as increase in picometer shifts of reflected light wavelengths by DMR assay relative to control; details: filed as partial agonist
[9] = system: Cannabinoid receptor 2 (Homo sapiens), P34972 [V36M]; experiment: Partial agonist activity at CBR2 V361.35M mutant (unknown origin) stably expressed in HEK293T assessed as decrease in forskolin induced cAMP level preincubated for 15 mins followed by forskolin addition incubated for 15 mins by HTRF assay relative to control; details: filed as partial agonist, time 30.0 min
[10] = system: Cannabinoid receptor 2 (Homo sapiens), P34972 [V113M]; experiment: Partial agonist activity at CBR2 V1133.32M mutant (unknown origin) stably expressed in HEK293T assessed as decrease in forskolin induced cAMP level preincubated for 15 mins followed by forskolin addition incubated for 15 mins in presence of cannabidiol by HTRF assay relative to control; details: filed as partial agonist, time 30.0 min
[11] = target: T4, Cannabinoid receptor 2 (Homo sapiens, UniProt P34972); experiment: Positive allosteric modulation of JWH-133-induced agonist activity at wild type CB2 receptor (unknown origin) stably expressed in HEK293T cells assessed as inhibition of forskolin-stimulated cAMP levels preincubated for 15 mins followed by forskolin addition incubated for 15 mins by HTRF assay relative to control; details: filed as positive allosteric modulator, time 30.0 min
[12] = target: Cannabinoid receptor 2 (Homo sapiens, UniProt P34972, A282M); experiment: Partial agonist activity at CBR2 A2827.36M mutant (unknown origin) stably expressed in HEK293T assessed as decrease in forskolin induced cAMP level preincubated for 15 mins followed by forskolin addition incubated for 15 mins in presence of cannabidiol by HTRF assay
[13] = system: Cannabinoid receptor 2 (Homo sapiens), P34972 [V113M]; experiment: Partial agonist activity at CBR2 V1133.32M mutant (unknown origin) expressed in HEK293T assessed as increase in picometer shifts of reflected light wavelengths in presence of cannabidiol by DMR assay relative to control; details: filed as partial agonist
[14] = system: Cannabinoid receptor 2 (Homo sapiens), P34972 [A282M]; experiment: Partial agonist activity at CBR2 A2827.36M mutant (unknown origin) stably expressed in HEK293T assessed as decrease in forskolin induced cAMP level preincubated for 15 mins followed by forskolin addition incubated for 15 mins in presence of cannabidiol by HTRF assay relative to control; details: filed as partial agonist, time 30.0 min
[15] = target: T4, Cannabinoid receptor 2; experiment: Partial agonist activity at wild type CB2 receptor (unknown origin) expressed in HEK293T assessed as increase in picometer shifts of reflected light wavelengths by DMR assay
[16] = target: T4, Cannabinoid receptor 2; experiment: Partial agonist activity at wild type CB2 receptor (unknown origin) expressed in HEK293T assessed as increase in picometer shifts of reflected light wavelengths in presence of cannabidiol by DMR assay relative to control; details: filed as partial agonist
[17] = target: T4, Cannabinoid receptor 2; experiment: Partial agonist activity at wild type CB2 receptor (unknown origin) expressed in HEK293T assessed as increase in picometer shifts of reflected light wavelengths by DMR assay relative to control; details: filed as partial agonist
[18] = target: T2, Cannabinoid receptor 2; experiment: Partial agonist activity at CBR2 V1133.32M mutant (unknown origin) stably expressed in HEK293T assessed as decrease in forskolin induced cAMP level preincubated for 15 mins followed by forskolin addition incubated for 15 mins in presence of cannabidiol by HTRF assay
[19] = system: Cannabinoid receptor 2 (Homo sapiens), P34972 [V36M]; experiment: Partial agonist activity at CBR2 V361.35M mutant (unknown origin) expressed in HEK293T assessed as increase in picometer shifts of reflected light wavelengths in presence of cannabidiol by DMR assay relative to control; details: filed as partial agonist
[20] = target: T2, Cannabinoid receptor 2; experiment: Partial agonist activity at CBR2 V1133.32M mutant (unknown origin) expressed in HEK293T assessed as increase in ERK1/2 phosphorylation incubated for 7 mins by AlphaScreenSureFire method
[21] = system: Cannabinoid receptor 2 (Homo sapiens), P34972 [V113M]; experiment: Partial agonist activity at CBR2 V1133.32M mutant (unknown origin) expressed in HEK293T assessed as increase in ERK1/2 phosphorylation incubated for 7 mins in presence of cannabidiol by AlphaScreenSureFire method relative to control; details: filed as partial agonist
[22] = target: T3, Cannabinoid receptor 2; experiment: Partial agonist activity at CBR2 S2857.39L mutant (unknown origin) expressed in HEK293T assessed as increase in ERK1/2 phosphorylation incubated for 7 mins in presence of cannabidiol by AlphaScreenSureFire method
[23] = target: T4, Cannabinoid receptor 2; experiment: Partial agonist activity at wild type CB2 receptor (unknown origin) expressed in HEK293T assessed as increase in ERK1/2 phosphorylation incubated for 7 mins in presence of cannabidiol by AlphaScreenSureFire method
[24] = target: T3, Cannabinoid receptor 2; experiment: Partial agonist activity at CBR2 S2857.39L mutant (unknown origin) stably expressed in HEK293T assessed as decrease in forskolin induced cAMP level preincubated for 15 mins followed by forskolin addition incubated for 15 mins by HTRF assay
[25] = target: T1, Cannabinoid receptor 2; experiment: Partial agonist activity at CBR2 V361.35M mutant (unknown origin) stably expressed in HEK293T assessed as decrease in forskolin induced cAMP level preincubated for 15 mins followed by forskolin addition incubated for 15 mins in presence of cannabidiol by HTRF assay
[26] = system: Cannabinoid receptor 2 (Homo sapiens), P34972 [S285L]; experiment: Partial agonist activity at CBR2 S2857.39L mutant (unknown origin) expressed in HEK293T assessed as increase in picometer shifts of reflected light wavelengths by DMR assay relative to control; details: filed as partial agonist
[27] = target: T4, Cannabinoid receptor 2; experiment: Partial agonist activity at wild type CB2 receptor (unknown origin) expressed in HEK293T assessed as increase in picometer shifts of reflected light wavelengths in presence of cannabidiol by DMR assay

T4 sequence (P34972 whole entry): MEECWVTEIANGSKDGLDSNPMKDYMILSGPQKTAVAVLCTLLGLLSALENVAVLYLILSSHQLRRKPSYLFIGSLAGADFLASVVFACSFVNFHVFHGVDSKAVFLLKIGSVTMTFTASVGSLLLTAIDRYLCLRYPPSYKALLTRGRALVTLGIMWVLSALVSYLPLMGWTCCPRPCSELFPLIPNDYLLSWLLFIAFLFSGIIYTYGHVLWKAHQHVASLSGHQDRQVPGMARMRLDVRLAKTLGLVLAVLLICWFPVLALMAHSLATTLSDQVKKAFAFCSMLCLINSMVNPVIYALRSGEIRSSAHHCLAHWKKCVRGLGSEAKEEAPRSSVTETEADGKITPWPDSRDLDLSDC
T3 sequence (P34972 whole entry S285L): as the sequence (P34972 whole entry) above, with S285L counted along it
Cannabinoid receptor 2 (Homo sapiens), P34972 [V113M], sequence (P34972 whole entry V113M): as the sequence (P34972 whole entry) above, with V113M counted along it
T2 sequence (P34972 whole entry V113M): as the sequence (P34972 whole entry) above, with V113M counted along it
Cannabinoid receptor 2 (Homo sapiens), P34972 [V36M], sequence (P34972 whole entry V36M): as the sequence (P34972 whole entry) above, with V36M counted along it
Cannabinoid receptor 2 (Homo sapiens), P34972 [S285L], sequence (P34972 whole entry S285L): as the sequence (P34972 whole entry) above, with S285L counted along it
Cannabinoid receptor 2 (Homo sapiens), P34972 [A282M], sequence (P34972 whole entry A282M): as the sequence (P34972 whole entry) above, with A282M counted along it
T1 sequence (P34972 whole entry V36M): as the sequence (P34972 whole entry) above, with V36M counted along it
Cannabinoid receptor 2 (Homo sapiens, UniProt P34972, A282M), sequence (P34972 whole entry A282M): as the sequence (P34972 whole entry) above, with A282M counted along it

CCCC(C)(C)c1cc(O)c2c(c1)OC(C)(C)[C@@H]1CC=C(C)C[C@@H]21
EC50 [1]: 0.631 µM
EC50 [2]: 0.398 µM
EC50 [3]: 0.501 µM
Emax [4]: 165%
EC50 [5]: 0.0398 µM
Emax [6]: 276%
Emax [7]: 199%
Emax [8]: 193%
Emax [9]: 56.7%
Emax [10]: 77.8%
Emax [11]: 56%
EC50 [12]: 0.00794 µM
Emax [13]: 71.9%
Emax [14]: 48.8%
EC50 [15]: 0.631 µM
Emax [16]: 117%
Emax [17]: 183%
EC50 [18]: 0.0251 µM
Emax [19]: 200%
EC50 [20]: 0.02 µM
Emax [21]: 216%
EC50 [22]: 0.0316 µM
EC50 [23]: 0.00794 µM
EC50 [24]: 0.0398 µM
EC50 [25]: 0.0158 µM
Emax [26]: 223%
EC50 [27]: 0.631 µM
